Test results: ChEMBL document CHEMBL4354809, “p97: An Emerging Target for Cancer, Neurodegenerative Diseases, and Viral Infections” (J Med Chem, 2020)
pIC50, pKd: −log10 of the molar value.

Assays:
[1] = tested on: Human betaherpesvirus 5; assay: Antiviral activity against Human Cytomegalovirus; format: functional, organism-based
[2] = target: T1, Transitional endoplasmic reticulum ATPase (Homo sapiens, UniProt P55072); assay: Binding affinity to GST-tagged p97 (unknown origin) by CD spectroscopy
T1 sequence (P55072 whole entry): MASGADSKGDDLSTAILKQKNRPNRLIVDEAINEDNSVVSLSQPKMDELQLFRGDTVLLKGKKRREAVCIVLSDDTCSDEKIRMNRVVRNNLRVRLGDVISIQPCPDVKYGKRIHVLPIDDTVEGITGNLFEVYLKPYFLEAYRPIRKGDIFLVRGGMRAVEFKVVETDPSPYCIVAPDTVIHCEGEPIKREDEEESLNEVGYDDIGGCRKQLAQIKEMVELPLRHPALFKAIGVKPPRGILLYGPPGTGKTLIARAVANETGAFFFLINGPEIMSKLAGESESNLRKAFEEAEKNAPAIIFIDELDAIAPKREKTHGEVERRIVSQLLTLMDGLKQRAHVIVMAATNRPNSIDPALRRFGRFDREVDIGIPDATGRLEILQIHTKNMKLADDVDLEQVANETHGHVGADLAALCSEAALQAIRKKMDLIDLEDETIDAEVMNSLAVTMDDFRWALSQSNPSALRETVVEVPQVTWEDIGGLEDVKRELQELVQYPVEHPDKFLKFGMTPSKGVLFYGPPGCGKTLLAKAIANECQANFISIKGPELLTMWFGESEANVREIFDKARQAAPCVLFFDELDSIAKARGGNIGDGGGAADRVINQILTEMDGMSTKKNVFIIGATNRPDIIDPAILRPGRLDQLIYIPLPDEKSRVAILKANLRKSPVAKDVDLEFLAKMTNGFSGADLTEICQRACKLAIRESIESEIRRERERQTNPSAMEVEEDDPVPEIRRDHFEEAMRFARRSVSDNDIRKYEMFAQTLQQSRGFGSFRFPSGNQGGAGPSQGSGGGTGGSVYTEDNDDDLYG

[3] = tested on: JeKo-1; assay: Growth inhibition of human JeKo1 cells assessed as reduction in cell viability by MTT assay; format: functional, cell-based
[4] = target: T1, Transitional endoplasmic reticulum ATPase; assay: Binding affinity to p97 (unknown origin) by SPR assay
[5] = tested on: HCT-116; assay: Antiproliferative activity against human HCT116 cells; format: functional, cell-based
[6] = target: T1, Transitional endoplasmic reticulum ATPase; assay: Inhibition of p97 (unknown origin) by ADP-Glo assay
[7] = target: T1, Transitional endoplasmic reticulum ATPase; assay: Inhibition of GST-fused VCP (unknown origin) expressed in Escherichia coli BL21 star (DE3) pre-incubated for 60 mins before ATP addition and measured after 60 mins by kinase Glo-Plus reagent based assay
[8] = target: T1, Transitional endoplasmic reticulum ATPase; assay: Inhibition of p97 (unknown origin) assessed as reduction in ATPase activity
[9] = target: T1, Transitional endoplasmic reticulum ATPase; assay: Inhibition of p97 (unknown origin) expressed in Escherichia coli BL21 (DE3) pre-incubated for 10 mins before ATP addition and measured up to 120 mins measured by malachite green assay
[10] = target: ATP-dependent clpX-like chaperone, mitochondrial (Homo sapiens, UniProt O76031); assay: Inhibition of ClpX (unknown origin) expressed in Escherichia coli BL21 (DE3) pre-incubated for 10 mins before ATP addition and measured up to 120 mins measured by malachite green assay
Chain of ATP-dependent clpX-like chaperone, mitochondrial (O76031 whole entry): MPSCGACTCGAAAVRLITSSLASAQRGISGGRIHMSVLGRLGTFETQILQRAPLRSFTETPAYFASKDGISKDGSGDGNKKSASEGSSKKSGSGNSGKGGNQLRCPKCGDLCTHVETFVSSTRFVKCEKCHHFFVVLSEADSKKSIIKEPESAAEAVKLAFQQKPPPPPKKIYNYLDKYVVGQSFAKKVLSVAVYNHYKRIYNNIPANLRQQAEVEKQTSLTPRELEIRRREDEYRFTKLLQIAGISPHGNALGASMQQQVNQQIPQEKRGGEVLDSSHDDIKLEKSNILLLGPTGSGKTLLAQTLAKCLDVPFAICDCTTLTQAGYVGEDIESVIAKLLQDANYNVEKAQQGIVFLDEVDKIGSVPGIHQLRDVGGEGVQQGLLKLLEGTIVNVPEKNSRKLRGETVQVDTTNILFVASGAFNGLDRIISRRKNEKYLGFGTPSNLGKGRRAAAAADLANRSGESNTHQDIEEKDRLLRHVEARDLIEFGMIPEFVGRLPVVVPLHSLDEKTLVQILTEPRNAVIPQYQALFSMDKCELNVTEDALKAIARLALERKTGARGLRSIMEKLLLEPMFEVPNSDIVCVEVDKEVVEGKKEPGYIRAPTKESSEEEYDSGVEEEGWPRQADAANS

[11] = target: T1, Transitional endoplasmic reticulum ATPase; assay: Inhibition of p97 in human HeLa cells assessed as reduction in p97-dependent UbG76V-GFP degradation incubated for 1 hr by […] reporter gene assay; format: cell-based
[12] = target: T2, Vacuolar protein sorting-associated protein 4B (Homo sapiens, UniProt O75351); assay: Inhibition of VPS4B (unknown origin) by malachite green assay
T2 sequence (O75351 whole entry): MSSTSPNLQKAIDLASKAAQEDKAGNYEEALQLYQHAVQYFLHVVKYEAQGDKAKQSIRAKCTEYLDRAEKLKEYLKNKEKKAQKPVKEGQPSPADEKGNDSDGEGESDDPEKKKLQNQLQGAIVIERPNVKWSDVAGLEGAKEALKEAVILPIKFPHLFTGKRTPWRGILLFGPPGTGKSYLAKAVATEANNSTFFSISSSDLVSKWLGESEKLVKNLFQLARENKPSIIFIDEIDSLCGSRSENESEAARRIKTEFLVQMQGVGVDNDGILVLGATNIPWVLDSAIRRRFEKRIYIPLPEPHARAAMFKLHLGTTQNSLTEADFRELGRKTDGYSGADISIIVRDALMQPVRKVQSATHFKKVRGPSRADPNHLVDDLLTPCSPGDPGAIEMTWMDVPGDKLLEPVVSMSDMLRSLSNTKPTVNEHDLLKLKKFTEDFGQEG

[13] = target: T1, Transitional endoplasmic reticulum ATPase; assay: Inhibition of p97 (unknown origin) by malachite green assay
[14] = organism: Homo sapiens; assay: Selectivity ratio of IC50 for inhibition of p97 (unknown origin) by malachite green assay to IC50 for inhibition of VPS4B (unknown origin) by malachite green assay
[15] = target: T2, Vacuolar protein sorting-associated protein 4B; assay: Inhibition of VPS4B (unknown origin) assessed as reduction in ATPase activity in presence of activating fragment of substrate CHMP1B
[16] = tested on: Panel NCI-60 (60 carcinoma cell lines); assay: Growth inhibition of human NCI60 cells; format: functional, cell-based
[17] = target: T1, Transitional endoplasmic reticulum ATPase; assay: Inhibition of human p97
[18] = target: T1, Transitional endoplasmic reticulum ATPase; assay: Inhibition of p97 in HEK293 cells co-expressing GFP and hemagglutinin assessed as reduction in p97-dependent ERAD pathway by immunoblotting analysis; format: cell-based

Cc1cc(OCc2nnc(SC3CCCC3)n2-c2cccnc2)ccc1-c1ccc(S(C)(=O)=O)cc1
pIC50 [1]: 6.89

O=C(/C=C1\Nc2ccccc2C(=O)N2CCC[C@@H]12)/C=C/c1c[nH]c2ccc(I)cc12
pKd [2]: 5.15

CC1(C)C(N(O)C(=O)Nc2ccc(Cl)cc2)N(c2ccc(Cl)cc2)C(=O)N1CC(=O)N/N=C/C=C/c1ccc([N+](=O)[O-])o1 (stereo not drawn)
pIC50 [3]: 5.40 | pKd [4]: 5.00 to 5.30

O=C(CCl)Nc1cccc(NC2=NS(=O)(=O)c3ccccc32)c1
pIC50 [5]: 5.52

CC(C)N1CCN(CCNC2CCN(c3cccc(-c4cc5cc(C(F)(F)F)ccc5[nH]4)c3)CC2)CC1
pIC50 [6]: 5.34

CC(C)N1CCN(CCNC2CCN(c3cccc(-c4cc5cc(C(=O)N(C)C)ccc5[nH]4)c3)CC2)CC1
pIC50 [6]: 4.50

COc1ccc(C(=O)c2oc3ccccc3c2NC(C)=O)cc1
pIC50 [7]: < 4.00

[N-]=[N+]=Nc1cccc(-n2c(COc3ccc(CCCO)cc3)nnc2SC2CCCC2)c1
pIC50 [8]: 5.96

CC(=O)OCC1=C(C)C[C@H]([C@@H](C)[C@H]2CC[C@H]3[C@@H]4C[C@H]5O[C@]56[C@@H](O)C=CC(=O)[C@]6(C)[C@H]4CC[C@]23C)OC1=O
pIC50 [9]: 4.66 | pIC50 [10]: 5.02

[N-]=[N+]=Nc1cccc(OCc2nnc(SC3CCCC3)n2-c2cccnc2)c1
pIC50 [8]: 6.12

CC(C)N1CCN(CCNC2CCN(c3cccc(-c4cc5cc(C#N)ccc5[nH]4)c3)CC2)CC1
pIC50 [6]: 7.36

Clc1ccccc1C(c1ccccc1)(c1ccccc1)n1ccnc1 [CLOTRIMAZOLE]
pIC50 [11]: 5.85

Fc1ccc(C(CCCNCC2CCc3[nH]c4ccc(F)cc4c3C2)c2ccc(F)cc2)cc1 (stereo not drawn)
pIC50 [12]: 6.15 | pIC50 [13]: 5.14 | Ratio IC50 [14]: 10 | pIC50 [15]: 6.15

CC(C)N1CCN(CCNC2CCN(c3cccc(-c4cc5cc(F)ccc5[nH]4)c3)CC2)CC1
pIC50 [16]: 5.70 to 6.50 | pIC50 [17]: 7.15 to 7.70

C[C@H]1CCC/C=C/C(=O)c2c(O)c(Cl)c(O)c(Cl)c2CC(=O)O1
pIC50 [9]: 4.82 | pIC50 [18]: 5.10

Nc1nc2c(ncn2COC(CO)CO)c(=O)[nH]1 [GANCICLOVIR]
pIC50 [1]: 5.89
